The text below walks through data of patent publication US6878804B1, “Synthesis of template-fixed β-hairpin loop mimetics” (University of Zurich, priority 1999, dated 2005).

Non-standard residues stand in square brackets, D forms with d. Residues, ends and D or L forms follow the SMILES beside them.

platelet-derived growth factor β-receptor (PDGFR-β), sequence (P09619 33-1106, species assumed): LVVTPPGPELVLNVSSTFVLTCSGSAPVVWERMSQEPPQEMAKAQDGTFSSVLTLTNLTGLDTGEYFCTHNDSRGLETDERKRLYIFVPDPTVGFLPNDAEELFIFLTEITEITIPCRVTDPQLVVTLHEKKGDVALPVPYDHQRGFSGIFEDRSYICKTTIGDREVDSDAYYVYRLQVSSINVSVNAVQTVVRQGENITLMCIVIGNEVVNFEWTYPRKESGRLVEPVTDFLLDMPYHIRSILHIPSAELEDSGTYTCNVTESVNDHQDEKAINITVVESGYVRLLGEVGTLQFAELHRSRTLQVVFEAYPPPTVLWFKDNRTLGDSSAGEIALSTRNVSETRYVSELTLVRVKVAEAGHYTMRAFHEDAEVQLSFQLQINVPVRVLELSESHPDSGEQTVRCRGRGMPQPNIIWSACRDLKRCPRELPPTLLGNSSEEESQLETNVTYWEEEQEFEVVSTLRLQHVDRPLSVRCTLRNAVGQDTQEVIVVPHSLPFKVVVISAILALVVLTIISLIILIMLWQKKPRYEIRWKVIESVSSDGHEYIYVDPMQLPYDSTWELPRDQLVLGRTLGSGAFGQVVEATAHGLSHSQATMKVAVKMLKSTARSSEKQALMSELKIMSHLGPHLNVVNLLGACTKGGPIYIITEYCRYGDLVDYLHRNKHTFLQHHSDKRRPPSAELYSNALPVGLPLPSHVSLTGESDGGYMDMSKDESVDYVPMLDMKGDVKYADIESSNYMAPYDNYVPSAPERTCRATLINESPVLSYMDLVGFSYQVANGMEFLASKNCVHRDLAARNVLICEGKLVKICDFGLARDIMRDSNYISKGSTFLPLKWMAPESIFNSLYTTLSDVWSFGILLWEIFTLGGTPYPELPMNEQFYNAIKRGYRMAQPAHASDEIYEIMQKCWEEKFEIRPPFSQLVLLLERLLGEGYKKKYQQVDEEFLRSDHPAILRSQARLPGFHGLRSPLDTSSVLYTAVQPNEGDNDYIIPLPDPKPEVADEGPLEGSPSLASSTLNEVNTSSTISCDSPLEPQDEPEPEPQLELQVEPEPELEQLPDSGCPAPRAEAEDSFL

The assay addresses platelet-derived growth factor β-receptor (PDGFR-β) (Homo sapiens, UniProt P09619). Briefly: Solid-phase assay: displacement of 125I-PDGF-BB from immobilized PDGFR-β. To be noted: competition with 125I-PDGF-BB, 3 h at room temperature, immobilized purified PDGFR-β; read-out: Assay I50. The assay is classed as binding. The procedure: Direct immobilization of platelet-derived growth factor […] is performed by overnight incubation in immunosorbent 96-well plates (Nunc) at 4° C. using 100 ng of purified protein in 100 μl of 15 mM Na2CO3, 35 mM NaHCO3, pH 9.6. The plates are washed once with tris-buffered saline (TBS, 20 mM Tris-HCl, 150 mM NaCl, pH 7.4), and nonspecific adsorption is blocked by at least 1 h of incubation with TBS plus 1% bovine serum albumin (BSA). Following washing with TBS plus 0.1% Tween, 3000 cpm of ^125I-PDGF-BB and increasing amounts of unlabeled PDGF-BB or the peptide derivative of formula I are added to duplicate wells and incubated for 3 h at room temperature in 0.1% Tween, 1 mM CaCl2, 1 mM MgCl2 and 1% BSA. The plates are washed three times with TBS plus 0.1% Tween, and bound ligand is removed with 0.1 M citric acid, pH 2.5, prior to counting in a γ-counter.
Direct immobilization of platelet-derived growth factor β-receptor (PDGFR-β) was performed by overnight incubation in immunosorbent 96-well plates (Nunc) at 4° C. using 100 ng of purified protein in 100 μl of 15 mM Na2CO3, 35 mM NaHCO3, pH 9.6. Plates were washed once with Tris-buffered saline (TBS, 20 mM Tris-HCL, 150 mM Na Cl, pH 7.4), and nonspecific adsorption was blocked by at least 1 h of incubation with TBS plus 1% bovine serum albumin (BSA). Following washing with TBS plus 0.1% Tween, 3000 cpm of ^125I-PDGF-BB and increasing amounts of unlabeled PDGF-BB or the peptides to be tested were added to duplicate wells and incubated for 3 h at room temperature in TBS plus 0.1% Tween, 1 mM CaCl2, 1 mM MgCl2, and 1% BSA. The plates were washed three times with TBS plus 0.1% Tween, and the bound ligand was removed with 0.1 M citric acid, pH 2.5, before counting in a γ-counter.
The cyclic peptides were analyzed and purified by preparative HPLC (dual-pump Pharmacia system with Waters RCM-μBondapak®-C18-cartridges, 10 μm 300 A 25×100 mm for prep. and 8×100 mm for anal., with flow rates of 8 and 2 ml/mim, respectively; UV detection at 226 and 278 nm), then MS, NMR(600 MHz,1 H) and CD. Solid-phase assays were run, as described in 2.4.
For the compound `CC(C)[C@@H]1NC(=O)[C@H](Cc2ccc(O)cc2)NC(=O)[C@H](Cc2c[nH]c3ccccc23)NC(=O)[C@@H]2CCCN2C(=O)[C@H]2CCCN2C(=O)[C@H](Cc2c[nH]c3ccccc23)NC(=O)[C@H](Cc2ccc(O)cc2)NC(=O)[C@H](CCCCN)NC(=O)[C@H](CCCCN)NC(=O)[C@H](CCCNC(=N)N)NC1=O` [Example 14] (cyclo(PWYVRKKYW[dP])), the IC50 amounted to 170 µM. To `CC[C@H](C)[C@@H]1NC(=O)[C@H](Cc2c[nH]c3ccccc23)NC(=O)[C@@H]2CCCN2C(=O)[C@H]2CCCN2C(=O)[C@H](Cc2c[nH]c3ccccc23)NC(=O)[C@@H]2CCCN2C(=O)[C@H](CCCCN)NC(=O)[C@H](CCCCN)NC(=O)[C@H](CCCNC(=N)N)NC(=O)[C@H](C(C)C)NC1=O` [Example 13] (cyclo(PWIVRKKPW[dP])) belongs 260 µM; to `CC[C@H](C)[C@@H]1NC(=O)[C@H](Cc2c[nH]c3ccccc23)NC(=O)[C@H](CCCCN)NC(=O)[C@H](CCCCN)NC(=O)[C@H](CCCNC(=N)N)NC(=O)[C@H](C(C)C)NC(=O)[C@H](Cc2c[nH]c3ccccc23)NC(=O)[C@H](CCC(=O)O)NC(=O)[C@@H]2CCCN2C(=O)[C@H]2CCCN2C1=O` [Example 3] (cyclo(PEWVRKKWI[dP])), 1500 µM. To `CC[C@H](C)[C@@H]1NC(=O)[C@H](Cc2ccc(O)cc2)NC(=O)[C@@H]2CCCN2C(=O)[C@H]2CCCN2C(=O)[C@H](Cc2ccc(O)cc2)NC(=O)[C@@H]2CCCN2C(=O)[C@H](CCCCN)NC(=O)[C@H](CCCCN)NC(=O)[C@H](CCCNC(=N)N)NC(=O)[C@H](C(C)C)NC1=O` [Example 7] (cyclo(PYIVRKKPY[dP])) belongs 1500 µM.
